Reference: PubChem BioAssay AID192 (DTP/NCI, 2004)
Where “and” joins values, the source holds several entries; their conditions need not be identical. Equal entries are not always repeated. Inconclusive results and toxic doses are left out.

Test system: BDF1 mice, B16 melanoma ip, median survival T/C
Assay: NCI In Vivo Anticancer Drug Screen. Data for tumor model B16 Melanoma (intraperitoneal) in B6D2F1 (BDF1) mice
Details: endpoint: median survival time, higher = longer survival
Procedure, shortened: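 Vehicle-treated animals serve as the reference (C); treated animals (T) are scored for survival or tumor size after tumor transplantation.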

[1] = dose: 50.0 mg/kg/injection, schedule: Q04DX003 (ip), vehicle: Klucel (hydroxypropylcellulose) (HPC)
[2] = dose: 100.0 mg/kg/injection, schedule: Q04DX003 (ip), vehicle: Klucel (hydroxypropylcellulose) (HPC)
[3] = dose: 200.0 mg/kg/injection, schedule: Q04DX003 (ip), vehicle: Klucel (hydroxypropylcellulose) (HPC)
[4] = dose: 25.0 mg/kg/injection, schedule: Q01DX009 (ip), vehicle: Klucel (hydroxypropylcellulose) (HPC)
[5] = dose: 50.0 mg/kg/injection, schedule: Q01DX009 (ip), vehicle: Klucel (hydroxypropylcellulose) (HPC)
[6] = dose: 100.0 mg/kg/injection, schedule: Q01DX009 (ip), vehicle: Klucel (hydroxypropylcellulose) (HPC)
[7] = dose: 400.0 mg/kg/injection, schedule: Q04DX003 (ip), vehicle: Klucel (hydroxypropylcellulose) (HPC)
[8] = dose: 6.25 mg/kg/injection, schedule: Q01DX009 (ip), vehicle: saline
[9] = dose: 12.5 mg/kg/injection, schedule: Q01DX009 (ip), vehicle: saline
[10] = dose: 25.0 mg/kg/injection, schedule: Q01DX009 (ip), vehicle: saline
[11] = dose: 50.0 mg/kg/injection, schedule: Q01DX009 (ip), vehicle: saline
[12] = dose: 100.0 mg/kg/injection, schedule: Q01DX009 (ip), vehicle: saline
[13] = dose: 50.0 mg/kg/injection, schedule: Q01DX009 (ip), vehicle: saline with Tween-80
[14] = dose: 100.0 mg/kg/injection, schedule: Q01DX009 (ip), vehicle: saline with Tween-80
[15] = dose: 200.0 mg/kg/injection, schedule: Q01DX009 (ip), vehicle: saline with Tween-80
[16] = dose: 12.5 mg/kg/injection, schedule: Q01DX009 (ip), vehicle: saline + alcohol
[17] = dose: 50.0 mg/kg/injection, schedule: Q01DX009 (ip), vehicle: saline + alcohol
[18] = dose: 400.0 mg/kg/injection, schedule: Q01DX009 (ip), vehicle: saline with Tween-80

In the case of O=C(SCC(NSc1ccccc1[N+](=O)[O-])C(=O)O)c1ccccc1 (centres undefined), the T/C [1] is reported as 113 % of control, the T/C [2] is reported as 100 % of control and the T/C [3] is reported as 94 % of control.
With CC(=O)C1CCC2C3CCC4=CC(=O)CC4(C)C3CCC12C (centres undefined) the T/C (dose: 100.0 mg/kg/injection, schedule: Q04DX003 (ip), vehicle: saline with Tween-80) was 94 % of control and the T/C (dose: 200.0 mg/kg/injection, schedule: Q04DX003 (ip), vehicle: saline with Tween-80) was 105 % of control.
For CCO/C=C1\SC(=S)N(c2cccc(C)c2)C1=O, the T/C (dose: 12.5 mg/kg/injection, schedule: Q01DX009 (ip), vehicle: Klucel (hydroxypropylcellulose) (HPC)) was 94 % of control, the T/C [4] was 97 % of control and the T/C [5] was 100 % of control. The T/C [6] was 87 % of control, the T/C [2] was 100 % of control and the T/C [3] was 89 % of control. For the same compound, the T/C [7] was 92 % of control.
In the case of O=C(O)C1(C(=O)O)CCCCC1.[NH2-].[NH2-].[Pt+2], the T/C [8] is reported as 159 % of control and the T/C [9] is reported as 188 % of control.
With C=C1C(=O)OC2C=C(C)CC3C=C(CCC=C(C)CCC12)C(=O)O3 (centres undefined) the T/C (dose: 4.0 mg/kg/injection, schedule: Q01DX009 (ip), vehicle: Klucel (hydroxypropylcellulose) (HPC)) was 90 % of control, the T/C (dose: 8.0 mg/kg/injection, schedule: Q01DX009 (ip), vehicle: Klucel (hydroxypropylcellulose) (HPC)) was 105 % of control and the T/C (dose: 16.0 mg/kg/injection, schedule: Q01DX009 (ip), vehicle: Klucel (hydroxypropylcellulose) (HPC)) was 116 % of control. The T/C (dose: 32.0 mg/kg/injection, schedule: Q01DX009 (ip), vehicle: Klucel (hydroxypropylcellulose) (HPC)) was 101 % of control.
COc1cc2ccc(/C=N/NC(N)=S)cc2cc1OC was tested, and the T/C (dose: 25.0 mg/kg/injection, schedule: Q01DX009 (ip), vehicle: other) was 117 % of control, the T/C (dose: 50.0 mg/kg/injection, schedule: Q01DX009 (ip), vehicle: other) was 108 % of control and the T/C (dose: 100.0 mg/kg/injection, schedule: Q01DX009 (ip), vehicle: other) was 109 % of control. The T/C (dose: 200.0 mg/kg/injection, schedule: Q01DX009 (ip), vehicle: other) was 96 % of control.
In the case of OCCN1CCCN(CCCN2c3ccccc3Sc3ccc(C(F)(F)F)cc32)CC1, the T/C (dose: 0.14 mg/kg/injection, schedule: Q04DX003 (ip), vehicle: saline) is reported as 108 % of control, the T/C (dose: 0.29 mg/kg/injection, schedule: Q04DX003 (ip), vehicle: saline) is reported as 100 % of control and the T/C (dose: 0.58 mg/kg/injection, schedule: Q01DX009 (ip), vehicle: saline) is reported as 98 % of control. The T/C (dose: 0.58 mg/kg/injection, schedule: Q04DX003 (ip), vehicle: saline) was 99 % of control, the T/C (dose: 1.17 mg/kg/injection, schedule: Q01DX009 (ip), vehicle: saline) was 98 % of control and the T/C (dose: 1.17 mg/kg/injection, schedule: Q04DX003 (ip), vehicle: saline) was 104 % of control. For the same compound, the T/C (dose: 2.34 mg/kg/injection, schedule: Q01DX009 (ip), vehicle: saline) was 96 % of control, the T/C (dose: 2.34 mg/kg/injection, schedule: Q04DX003 (ip), vehicle: saline) was 105 % of control and 116 % of control and the T/C (dose: 4.68 mg/kg/injection, schedule: Q01DX009 (ip), vehicle: saline) was 90 % of control. For the same compound, the T/C (dose: 4.68 mg/kg/injection, schedule: Q04DX003 (ip), vehicle: saline) was 122 % of control and the T/C (dose: 9.37 mg/kg/injection, schedule: Q04DX003 (ip), vehicle: saline) was 119 % of control.
In the case of c1ccc(OP2OCCO2)cc1, the T/C [10] is reported as 88 % of control, the T/C [11] is reported as 100 % of control and the T/C [12] is reported as 105 % of control. For the same compound, the T/C (dose: 200.0 mg/kg/injection, schedule: Q01DX009 (ip), vehicle: saline) was 91 % of control.
For Cc1cc(Cl)ccc1NC(=O)c1ccc([N+](=O)[O-])cc1, the T/C [13] was 104 % of control, the T/C [14] was 100 % of control and the T/C [15] was 103 % of control.
With Nc1nc(SCc2ccccc2Cl)c2ncn(C3OC(CO)C(O)C3O)c2n1 (centres undefined) the T/C [5] was 89 % of control and the T/C [13] was 88 % of control.
For OCC1OC(n2cnc3cncnc32)C(O)C1O (centres undefined), the T/C [9] was 115 % of control.
Cc1ccc(-c2cc(-c3ccccc3)no2)cc1 was tested, and the T/C [2] was 94 % of control, the T/C [3] was 100 % of control and the T/C [7] was 94 % of control.
With CNC1C(O)C(NC)C2OC3(O)C(=O)CC(C)OC3OC2C1O (centres undefined) the T/C [10] was 95 % of control, the T/C [11] was 100 % of control and the T/C [12] was 109 % of control.
For O=C(CCN1CCCCC1)c1cccc([N+](=O)[O-])c1, the T/C (dose: 12.5 mg/kg/injection, schedule: Q04DX003 (ip), vehicle: saline) was 105 % of control, the T/C (dose: 25.0 mg/kg/injection, schedule: Q04DX003 (ip), vehicle: saline) was 113 % of control and the T/C (dose: 50.0 mg/kg/injection, schedule: Q04DX003 (ip), vehicle: saline) was 100 % of control. For the same compound, the T/C [2] was 94 % of control.
In the case of O=C(NCCCCCCCCCCNC(=O)N1CC1)N1CC1, the T/C (dose: 0.75 mg/kg/injection, schedule: Q01DX009 (ip), vehicle: saline) is reported as 115 % of control and the T/C (dose: 3.0 mg/kg/injection, schedule: Q01DX009 (ip), vehicle: saline) is reported as 154 % of control.
O=C(CCCN1CCC(O)(c2ccc(Cl)cc2)CC1)c1ccc(F)cc1 was tested, and the T/C (dose: 3.12 mg/kg/injection, schedule: Q01DX009 (ip), vehicle: saline) was 99 % of control, the T/C [8] was 114 % of control and the T/C [9] was 102 % of control. The T/C [11] was 99 % of control.
O=C(Cl)C1CC2c3ccccc3C1([N+](=O)[O-])c1ccccc12 (centres undefined) was tested, and the T/C [1] was 94 % of control, the T/C [2] was 100 % of control and the T/C [3] was 102 % of control.
With CNC(=O)Nc1ccc(Cl)cc1C the T/C [4] was 95 % of control, the T/C [5] was 97 % of control and the T/C [6] was 92 % of control and 121 % of control.
C=CCC(CC)C(=O)Cl (centres undefined) was tested, and the T/C (dose: 12.5 mg/kg/injection, schedule: Q04DX003 (ip), vehicle: other) was 117 % of control, the T/C (dose: 25.0 mg/kg/injection, schedule: Q04DX003 (ip), vehicle: other) was 114 % of control and the T/C (dose: 50.0 mg/kg/injection, schedule: Q04DX003 (ip), vehicle: other) was 96 % of control. The T/C (dose: 100.0 mg/kg/injection, schedule: Q04DX003 (ip), vehicle: other) was 88 % of control.
For CCCCCCCCCNC(=O)Nc1cccc(Cl)c1C, the T/C [13] was 99 % of control and the T/C [14] was 91 % of control.
Cc1ccc(S(=O)(=O)OCCN(CCOS(=O)(=O)c2ccc(C)cc2)c2ccc(F)cc2)cc1 was tested, and the T/C (dose: 0.17 mg/kg/injection, schedule: Q01DX009 (ip), vehicle: saline) was 115 % of control, the T/C (dose: 0.35 mg/kg/injection, schedule: Q01DX009 (ip), vehicle: saline) was 108 % of control and the T/C (dose: 0.7 mg/kg/injection, schedule: Q01DX009 (ip), vehicle: saline) was 106 % of control. The T/C (dose: 1.5 mg/kg/injection, schedule: Q01DX009 (ip), vehicle: saline) was 115 % of control, the T/C (dose: 3.13 mg/kg/injection, schedule: Q01DX009 (ip), vehicle: saline) was 119 % of control and the T/C [8] was 117 % of control. The T/C [16] was 88 % of control, the T/C [17] was 110 % of control and the T/C [11] was 154 % of control. For the same compound, the T/C (dose: 100.0 mg/kg/injection, schedule: Q01DX009 (ip), vehicle: saline + alcohol) was 104 % of control.
In the case of Cc1ccc(N=C(c2ccc([N+](=O)[O-])cc2)c2ccc([N+](=O)[O-])cc2)cc1, the T/C [6] is reported as 111 % of control, the T/C (dose: 200.0 mg/kg/injection, schedule: Q01DX009 (ip), vehicle: Klucel (hydroxypropylcellulose) (HPC)) is reported as 97 % of control and the T/C (dose: 400.0 mg/kg/injection, schedule: Q01DX009 (ip), vehicle: Klucel (hydroxypropylcellulose) (HPC)) is reported as 91 % of control.
With Cc1ccc(C(=O)/C(=C/c2ccccc2)c2ccccc2)cc1 the T/C [2] was 113 % of control, the T/C [3] was 113 % of control and the T/C [7] was 104 % of control.
CC1(C)CC(C)(c2ccc(O)cc2)c2ccccc2O1 (centres undefined) was tested, and the T/C [14] was 100 % of control, the T/C [15] was 86 % of control and the T/C [18] was 86 % of control.
For Nc1ccc(-c2ccc(N)c([N+](=O)[O-])c2)cc1[N+](=O)[O-], the T/C [14] was 100 % of control, the T/C [15] was 97 % of control and the T/C [18] was 105 % of control.
In the case of COC(=O)NC1CC=CCC1I (centres undefined), the T/C [16] is reported as 109 % of control, the T/C (dose: 25.0 mg/kg/injection, schedule: Q01DX009 (ip), vehicle: saline + alcohol) is reported as 97 % of control and the T/C [17] is reported as 88 % of control.
In the case of Cc1cccc(Cl)c1NC(=O)Cn1cccc1, the T/C [4] is reported as 108 % of control, the T/C [5] is reported as 108 % of control and the T/C [6] is reported as 118 % of control.
